Reference: ChEMBL document CHEMBL1201862, “PubChem BioAssay data set” (2004)
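Briefly, cells in 96-well plates were exposed to five compound concentrations for 48 h, and endpoints were estimated by linear interpolation. Here, GI50 denotes the concentration required for 50% inhibition of growth.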 Active and inactive are the calls of the source. Cut-off read from the data, not from the text of the source: active = GI50 up to about 1.1 µM and inactive = higher. Where a SMILES comes first, the peptide text is derived from it. The star is where a group is joined. Boc = CC(C)(C)OC(=O)*

Experiments:
Assay in all cases: NCI-60 cell line screen, 48 h
[1] = tested on: SF-295
[2] = tested on: HL-60
[3] = tested on: K562
[4] = tested on: MDA-MB-231
[5] = tested on: TK-10
[6] = tested on: DU-145
[7] = tested on: HCC 2998
[8] = tested on: OVCAR-3
[9] = tested on: SK-MEL-5
[10] = tested on: SNB-75
[11] = tested on: A549
[12] = tested on: ACHN
[13] = tested on: SF-539
[14] = tested on: OVCAR-8
[15] = tested on: CCRF-CEM
[16] = tested on: SK-MEL-2
[17] = tested on: SK-OV-3
[18] = tested on: UACC-62
[19] = tested on: HOP-92
[20] = tested on: UACC-257

Measured: GI50

O=c1[nH]c(=O)n([C@@H]2O[C@H](CO)[C@@H](O)[C@H]2O)cc1F [5-FLUOROURIDINE]
inactive: [4] 1.63 µM | [5] 5.74 µM | [10] 2.25 µM | [16] 2.32 µM | [17] 5.66 µM
active: [1] 0.145 µM | [2] 0.0867 µM | [3] 0.0212 µM | [6] 0.151 µM | [7] 0.0311 µM | [8] 0.223 µM | [9] 0.344 µM | [11] 0.0179 µM | [12] 0.0307 µM | [13] 0.0375 µM | [14] 0.056 µM | [15] 0.057 µM | [18] 0.169 µM

COC(=O)C(COC(=O)/C=C/c1ccc(OC(C)=O)c(OC(C)=O)c1)OC(=O)/C=C/c1ccc(OC(C)=O)c(OC(C)=O)c1 (stereo not given)
inactive: [1] 14.3 µM | [3] 3.48 µM | [4] 6.7 µM | [5] 18.6 µM | [6] 12.1 µM | [7] 17.5 µM | [8] 6.32 µM | [9] 14.8 µM | [19] 18 µM | [11] 16.7 µM | [12] 14.5 µM | [20] 15.7 µM | [13] 10.8 µM | [14] 11.8 µM | [15] 3.38 µM | [16] 12.2 µM | [18] 16.8 µM

O=C1C(Cl)=C(NCCCN2CCOCC2)C(=O)c2c(O)ccc(O)c21
active: [9] 1.1 µM | [15] 1 µM | [16] 0.228 µM
inactive: [1] 2.53 µM | [3] 2.62 µM | [4] 3.01 µM | [5] 6.28 µM | [6] 1.6 µM | [7] 2.2 µM | [8] 1.61 µM | [10] 2.38 µM | [11] 3.9 µM | [12] 9.18 µM | [20] 2.35 µM | [13] 1.68 µM | [14] 3.99 µM | [17] 7.89 µM | [18] 1.77 µM

CC(=O)c1sc(=N)n(-c2c(C)cccc2C)c1C
inactive: [2] > 100 µM | [3] > 100 µM | [4] > 100 µM | [5] > 100 µM | [6] > 100 µM | [7] > 100 µM | [8] > 100 µM | [9] > 100 µM | [10] > 100 µM | [11] > 100 µM | [12] > 100 µM | [13] > 100 µM | [15] > 100 µM | [16] > 100 µM | [17] > 100 µM | [18] > 100 µM

COC(=O)C1=C(C(=O)OC)C2OC1C1C2C2(C)C(C)=C(C)C1(C)[S+]2[O-] (stereo not given)
inactive: [1] 28.4 µM | [3] 4.9 µM | [4] 22.5 µM | [5] 12.2 µM | [6] 6.62 µM | [7] 20.1 µM | [8] 9.02 µM | [9] 7.62 µM | [19] 15.8 µM | [10] 19.5 µM | [11] 22.3 µM | [12] 2.83 µM | [20] 12.4 µM | [13] 5.51 µM | [14] 5.15 µM | [16] 10.8 µM | [17] 37.9 µM | [18] 8.99 µM

COc1ccc(CCNCCCC2c3ccccc3-c3ccccc32)cc1OC
inactive: [1] 15.6 µM | [2] 12.9 µM | [3] 4.09 µM | [5] 14.4 µM | [6] 15.5 µM | [7] 2.06 µM | [8] 16.7 µM | [9] 10.6 µM | [19] 5.71 µM | [10] 13.5 µM | [11] 16.1 µM | [12] 16.1 µM | [20] 14.3 µM | [13] 16.3 µM | [14] 16.6 µM | [15] 24.3 µM | [16] 6.68 µM | [17] 18.9 µM | [18] 16.4 µM

N#C/C(=C\c1ccc2[nH]ccc2c1)C(=O)c1ccc(O)c(O)c1
inactive: [1] 61.4 µM | [2] 27.5 µM | [3] 48.4 µM | [5] > 72.1 µM | [6] 45.7 µM | [7] 66.7 µM | [8] 9.42 µM | [9] > 75.2 µM | [19] 53 µM | [10] > 100 µM | [11] > 57.7 µM | [12] 45.8 µM | [20] > 80.5 µM | [13] > 57.4 µM | [14] > 100 µM | [15] 24.5 µM | [16] > 78.9 µM | [17] 59.4 µM | [18] 70 µM

COC(OC)[C@@H]1OC[C@@H](O)[C@@H]1n1cnc2c(N)ncnc21
inactive: [1] > 100 µM | [3] > 100 µM | [4] > 100 µM | [5] > 100 µM | [6] > 100 µM | [7] > 100 µM | [8] > 100 µM | [9] > 100 µM | [19] > 100 µM | [10] > 100 µM | [12] > 100 µM | [20] > 100 µM | [13] > 100 µM | [15] > 100 µM | [16] > 100 µM | [17] > 100 µM | [18] > 100 µM

Cc1cc(N(CCC#N)CCC#N)ccc1/C=N/NC(=O)c1cc(Cl)ccc1O
inactive: [1] 54.7 µM | [2] 69.2 µM | [4] > 100 µM | [5] > 100 µM | [6] > 100 µM | [7] > 100 µM | [8] > 100 µM | [9] > 100 µM | [10] 34.1 µM | [11] > 100 µM | [20] > 100 µM | [13] > 100 µM | [14] > 100 µM | [15] > 100 µM | [16] > 100 µM | [17] > 100 µM | [18] > 100 µM

CCOc1ccc(N/C(=C(/C(Cl)=C(/Cl)NCCO)[N+](=O)[O-])n2nnc3ccccc32)cc1
inactive: [1] 28 µM | [3] 20.8 µM | [4] 20.6 µM | [6] 12.9 µM | [7] 79.4 µM | [8] 18.1 µM | [10] 60.1 µM | [11] 44 µM | [12] 19.5 µM | [20] 41.3 µM | [13] 34.5 µM | [14] 18.3 µM | [15] 5.57 µM | [16] 35 µM | [17] 12.8 µM | [18] 21.9 µM

COc1cccc(C2c3cc4c(cc3OC(N3CCCC3)C2C)OCO4)c1OC (stereo not given)
inactive: [1] 1.92 µM | [3] 3.17 µM | [5] 5.74 µM | [6] 2.01 µM | [8] 1.66 µM | [9] 2.87 µM | [11] 3.53 µM | [12] 2.49 µM | [20] 1.72 µM | [13] 3.33 µM | [14] 2.96 µM | [15] 2.77 µM | [16] 3.89 µM | [18] 5.78 µM

O=c1oc(-c2ccc(O)cc2)cc2cc(O)ccc12
inactive: [1] 39.4 µM | [2] 18.5 µM | [3] 13.2 µM | [5] 41.6 µM | [6] 39 µM | [7] 23.1 µM | [8] 27.5 µM | [9] 11.2 µM | [19] 21.7 µM | [10] 31.6 µM | [11] 41.5 µM | [12] 34.9 µM | [20] 52 µM | [13] 32.2 µM | [14] 41.9 µM | [15] 20.4 µM | [16] 33.3 µM | [17] 26.3 µM

C(#Cc1ccccc1)SC1=C(c2ccccc2)S/C(=C(\SC#Cc2ccccc2)c2ccccc2)S1
inactive: [1] > 100 µM | [3] > 100 µM | [4] > 100 µM | [5] > 100 µM | [6] > 100 µM | [7] > 100 µM | [8] > 100 µM | [9] > 100 µM | [19] > 100 µM | [10] > 100 µM | [11] > 100 µM | [12] > 100 µM | [20] > 100 µM | [13] > 100 µM | [14] > 100 µM | [15] > 100 µM | [17] > 100 µM | [18] > 100 µM

O=C(/N=N/c1ccc([N+](=O)[O-])cc1)NNc1ccc([N+](=O)[O-])cc1
inactive: [2] 11.9 µM | [3] 11.4 µM | [4] 24 µM | [5] 20.1 µM | [6] 5.74 µM | [7] 14.2 µM | [8] 20.5 µM | [9] 13.9 µM | [10] 23.9 µM | [11] 26 µM | [12] 13.5 µM | [20] 24.3 µM | [14] 17.2 µM | [15] 15.8 µM | [16] 13.3 µM | [18] 10.3 µM

O=C(Nc1cc(Cl)c(Cl)cc1Cl)C(=O)C1C=CCS1(=O)=O (stereo not given)
inactive: [1] > 100 µM | [2] > 100 µM | [3] > 100 µM | [5] > 100 µM | [7] > 100 µM | [8] > 100 µM | [9] > 100 µM | [19] 26.8 µM | [10] 72.6 µM | [11] > 100 µM | [12] > 100 µM | [20] > 100 µM | [13] > 100 µM | [14] > 100 µM | [15] > 100 µM | [16] > 100 µM | [17] > 100 µM | [18] > 100 µM

CC(NC(=O)C(NC(=O)OC(C)(C)C)C(C)C)C(=O)NCC(=O)O (stereo not drawn) (Boc-Val-Ala-Gly-OH; configuration not given here)
inactive: [1] > 100 µM | [3] > 100 µM | [5] > 100 µM | [6] > 100 µM | [7] > 100 µM | [8] > 100 µM | [9] > 100 µM | [19] > 100 µM | [11] > 100 µM | [12] > 100 µM | [20] > 100 µM | [13] > 100 µM | [14] > 100 µM | [16] > 100 µM | [17] > 100 µM | [18] > 100 µM
